# Laboratory results published in PubChem BioAssay AID1963962 (Molecular Pharmacology Branch, DTP, NCI, 2024).
# System: 967376-340-R-J2-PDC multicell spheroid viability
# Experiment: Anticancer human tumor 967376-340-R-J2-PDC patient-derived colon adenocarcinoma cell line growth inhibition [PI3K]
# Details: for IC50: curve of first compound; for viability, T/C: stronger effect = lower value
# In short: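 Combination activity was assessed by viability in multicellular tumor spheroids carrying HUVEC and MSC components. Agents were tested with PI3K inhibitors from a Cmax-based top dose (or 10 microM) downward in half-log increments.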
# [1] = second compound 0.00316 µM, first compound 0.0316 µM
# [2] = second compound 0.00316 µM, first compound 0.1 µM
# [3] = second compound 0.00316 µM, first compound 0.316 µM
# [4] = second compound 0.00316 µM, first compound 1 µM
# [5] = second compound 0.00316 µM, first compound 3.16 µM
# [6] = second compound 0.00316 µM, first compound 10 µM
# [7] = second compound 0.01 µM, first compound 0.0316 µM
# [8] = second compound 0.01 µM, first compound 0.1 µM
# [9] = second compound 0.01 µM, first compound 0.316 µM
# [10] = second compound 0.01 µM, first compound 1 µM
# [11] = second compound 0.01 µM, first compound 3.16 µM
# [12] = second compound 0.01 µM, first compound 10 µM
# [13] = second compound 0.0316 µM, first compound 0.0316 µM
# [14] = second compound 0.0316 µM, first compound 0.1 µM
# [15] = second compound 0.0316 µM, first compound 0.316 µM
# [16] = second compound 0.0316 µM, first compound 1 µM
# [17] = second compound 0.0316 µM, first compound 3.16 µM
# [18] = second compound 0.0316 µM, first compound 10 µM
# [19] = second compound 0.1 µM, first compound 0.0316 µM
# [20] = second compound 0.1 µM, first compound 0.1 µM
# [21] = second compound 0.1 µM, first compound 0.316 µM
# [22] = second compound 0.1 µM, first compound 1 µM
# [23] = second compound 0.1 µM, first compound 3.16 µM
# [24] = second compound 0.1 µM, first compound 10 µM
# [25] = second compound 0.316 µM, first compound 0.0316 µM
# [26] = second compound 0.316 µM, first compound 0.1 µM
# [27] = second compound 0.316 µM, first compound 0.316 µM
# [28] = second compound 0.316 µM, first compound 1 µM
# [29] = second compound 0.316 µM, first compound 3.16 µM
# [30] = second compound 0.316 µM, first compound 10 µM
# [31] = second compound 1 µM, first compound 0.0316 µM
# [32] = second compound 1 µM, first compound 0.1 µM
# [33] = second compound 1 µM, first compound 0.316 µM
# [34] = second compound 1 µM, first compound 1 µM
# [35] = second compound 1 µM, first compound 3.16 µM
# [36] = second compound 1 µM, first compound 10 µM
# 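Further: spheroids exposed to agents for 7 days before read-out.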
# 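Wherever viability, T/C is given: luminescence used as surrogate of cell viability.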
smiles,measurement,setting,value
C=CC(=O)N1CCN(c2nc(=O)n(-c3c(C)ccnc3C(C)C)c3nc(-c4c(O)cccc4F)c(F)cc23)C(C)C1 (centres undefined) + COc1c(OCCCN2CCOCC2)ccc2c3n(c(=NC(=O)c4cnc(N)nc4)nc12)CCN3,IC50,second compound 0.00316 µM,> 10 µM
same,IC50,second compound 0.01 µM,> 10 µM
same,IC50,second compound 0.0316 µM,> 10 µM
same,IC50,second compound 0.1 µM,> 10 µM
same,IC50,second compound 0.316 µM,< 0.0316 µM
same,IC50,second compound 1 µM,< 0.0316 µM
same,"viability, T/C",[1],112%
same,"viability, T/C",[2],101%
same,"viability, T/C",[3],91.7%
same,"viability, T/C",[4],92.6%
same,"viability, T/C",[5],111%
same,"viability, T/C",[6],70.2%
same,"viability, T/C",[7],95.5%
same,"viability, T/C",[8],97.8%
same,"viability, T/C",[9],90.8%
same,"viability, T/C",[10],80.4%
same,"viability, T/C",[11],84.8%
same,"viability, T/C",[12],73.5%
same,"viability, T/C",[13],74%
same,"viability, T/C",[14],81.7%
same,"viability, T/C",[15],73.1%
same,"viability, T/C",[16],70.3%
same,"viability, T/C",[17],85.6%
same,"viability, T/C",[18],79.8%
same,"viability, T/C",[19],55.3%
same,"viability, T/C",[20],78.6%
same,"viability, T/C",[21],63.9%
same,"viability, T/C",[22],66%
same,"viability, T/C",[23],84%
same,"viability, T/C",[24],52%
same,"viability, T/C",[25],50.5%
same,"viability, T/C",[26],41%
same,"viability, T/C",[27],41.3%
same,"viability, T/C",[28],40.3%
same,"viability, T/C",[29],50.1%
same,"viability, T/C",[30],42.6%
same,"viability, T/C",[31],33.6%
same,"viability, T/C",[32],36%
same,"viability, T/C",[33],29.6%
same,"viability, T/C",[34],34.5%
same,"viability, T/C",[35],37.9%
same,"viability, T/C",[36],39.5%
CC(C)NCC(C(=O)N1CCN(c2ncnc3c2C(C)CC3O)CC1)c1ccc(Cl)cc1 (centres undefined) + COc1c(OCCCN2CCOCC2)ccc2c3n(c(=NC(=O)c4cnc(N)nc4)nc12)CCN3,IC50,second compound 0.00316 µM,> 10 µM
same,IC50,second compound 0.01 µM,> 10 µM
same,IC50,second compound 0.0316 µM,> 10 µM
same,IC50,second compound 0.1 µM,> 10 µM
same,IC50,second compound 0.316 µM,< 0.0316 µM
same,IC50,second compound 1 µM,< 0.0316 µM
same,"viability, T/C",[1],79.8%
same,"viability, T/C",[2],100%
same,"viability, T/C",[3],78.2%
same,"viability, T/C",[4],83.5%
same,"viability, T/C",[5],73%
same,"viability, T/C",[6],85.4%
same,"viability, T/C",[7],90.9%
same,"viability, T/C",[8],75.4%
same,"viability, T/C",[9],102%
same,"viability, T/C",[10],66.9%
same,"viability, T/C",[11],76%
same,"viability, T/C",[12],75.5%
same,"viability, T/C",[13],78.8%
same,"viability, T/C",[14],61.5%
same,"viability, T/C",[15],62.5%
same,"viability, T/C",[16],66.7%
same,"viability, T/C",[17],82.9%
same,"viability, T/C",[18],66.4%
same,"viability, T/C",[19],53.7%
same,"viability, T/C",[20],54.1%
same,"viability, T/C",[21],74.5%
same,"viability, T/C",[22],49%
same,"viability, T/C",[23],57.9%
same,"viability, T/C",[24],47.5%
same,"viability, T/C",[25],38.4%
same,"viability, T/C",[26],35.5%
same,"viability, T/C",[27],57.1%
same,"viability, T/C",[28],33.9%
same,"viability, T/C",[29],52.5%
same,"viability, T/C",[30],49.4%
same,"viability, T/C",[31],48.4%
same,"viability, T/C",[32],25.3%
same,"viability, T/C",[33],37.2%
same,"viability, T/C",[34],26.1%
same,"viability, T/C",[35],47.6%
same,"viability, T/C",[36],48.7%
